Laboratory results taken from US20230398130A1, “METHODS AND COMPOSITIONS FOR DIFFERENTIATING STEM CELLS” (Massachusetts Institute of Technology, priority 2020, published 2023).

Tests used:
ISC-enriched organoids [1] = assay: Primary screen, 384-well 2.5-D organoid differentiation (ENR+CD, 6 days): basal lysozyme secretion (LYZ.NS); format: cell-based, murine; details: for Dose.FC.LYZ.NS: FC vs plate median; for Z.LYZ.NS: standard z score of FC; for Dose.FC.LYZ.NS (log 2 fold change): vs plate median
Description: (§1) High-throughput screening.

ISC-enriched organoids [2] = assay: Primary screen, 384-well 2.5-D organoid differentiation (ENR+CD, 6 days): carbachol-induced lysozyme secretion (LYZ.S); format: cell-based, murine; details: for Dose.FC.LYZ.S: FC vs plate median; for Dose.FC.LYZ.S (log 2 fold change): vs plate median
Description: as §1

ISC-enriched organoids [3] = assay: Primary screen, 384-well 2.5-D organoid differentiation (ENR+CD, 6 days, Target Selective Inhibitor Library, vs whole-plate median): ATP (CellTiter-Glo 3D, CTG); details: for Dose.FC.CTG: FC vs plate median; for Z.CTG: standard z score of FC; for Dose.FC.CTG (log 2 fold change): vs plate median
[4] = primary screen, dose 0.08 uM, ENR+CD 6 days
[5] = primary screen, dose 0.40 uM, ENR+CD 6 days
[6] = primary screen, dose 2.00 uM, ENR+CD 6 days
[7] = primary screen, dose 10.00 uM, ENR+CD 6 days

Compound `O=c1[nH]c2ccc(Cl)cc2c(N[C@@H]2CN3CCC2CC3)c1-c1nc2ccccc2[nH]1` [CHIR-124] has a Dose.FC.LYZ.NS (ISC-enriched organoids [1]; Dose 0.08 uM, ENR+CD, 6 days) of −0.155 log 2 fold change, a Z.LYZ.NS (ISC-enriched organoids [1]; Dose 0.08 uM) of −1.352 and a Dose.FC.LYZ.NS (ISC-enriched organoids [1]; Dose 0.40 uM, ENR+CD, 6 days) of −0.240 log 2 fold change. The Z.LYZ.NS (ISC-enriched organoids [1]; Dose 0.40 uM) was −2.090, the Dose.FC.LYZ.NS (ISC-enriched organoids [1]; Dose 2.00 uM, ENR+CD, 6 days) was −0.220 log 2 fold change and the Z.LYZ.NS (ISC-enriched organoids [1]; Dose 2.00 uM) was −1.916. For the same compound, the Dose.FC.LYZ.NS (ISC-enriched organoids [1]; Dose 10.00 uM, ENR+CD, 6 days) was −0.140 log 2 fold change, the Z.LYZ.NS (ISC-enriched organoids [1]; Dose 10.00 uM) was −1.223 and the Dose.FC.LYZ.S (ISC-enriched organoids [2]; Dose 0.08 uM, ENR+CD, 6 days) was −0.267 log 2 fold change. It also gave a Dose.FC.LYZ.S (ISC-enriched organoids [2]; Dose 0.40 uM, ENR+CD, 6 days) of −0.339 log 2 fold change, a Dose.FC.LYZ.S (ISC-enriched organoids [2]; Dose 2.00 uM, ENR+CD, 6 days) of −0.352 log 2 fold change and a Dose.FC.LYZ.S (ISC-enriched organoids [2]; Dose 10.00 uM, ENR+CD, 6 days) of −0.332 log 2 fold change. For the same compound, the Dose.FC.CTG (ISC-enriched organoids [3]; Dose 0.08 uM, ENR+CD, 6 days) was −0.256 log 2 fold change, the Z.CTG (ISC-enriched organoids [3]; Dose 0.08 uM) was −0.612 and the Dose.FC.CTG (ISC-enriched organoids [3]; Dose 0.40 uM, ENR+CD, 6 days) was −0.853 log 2 fold change. The Z.CTG (ISC-enriched organoids [3]; Dose 0.40 uM) was −2.038, the Dose.FC.CTG (ISC-enriched organoids [3]; Dose 2.00 uM, ENR+CD, 6 days) was −0.861 log 2 fold change and the Z.CTG (ISC-enriched organoids [3]; Dose 2.00 uM) was −2.057. For the same compound, the Dose.FC.CTG (ISC-enriched organoids [3]; Dose 10.00 uM, ENR+CD, 6 days) was −1.555 log 2 fold change and the Z.CTG (ISC-enriched organoids [3]; Dose 10.00 uM) was −3.714.

`CCCCCCCCc1ccc(CCC(N)(CO)CO)cc1.Cl` [Fingolimod (FTY720) HCl] gave a Dose.FC.LYZ.NS (ISC-enriched organoids [1]; Dose 0.08 uM, ENR+CD, 6 days) of −0.054 log 2 fold change, a Z.LYZ.NS (ISC-enriched organoids [1]; Dose 0.08 uM) of −0.471 and a Dose.FC.LYZ.NS (ISC-enriched organoids [1]; Dose 0.40 uM, ENR+CD, 6 days) of 0.071 log 2 fold change. For the same compound, the Z.LYZ.NS (ISC-enriched organoids [1]; Dose 0.40 uM) was 0.616, the Dose.FC.LYZ.NS (ISC-enriched organoids [1]; Dose 2.00 uM, ENR+CD, 6 days) was 0.021 log 2 fold change and the Z.LYZ.NS (ISC-enriched organoids [1]; Dose 2.00 uM) was 0.186. The Dose.FC.LYZ.NS (ISC-enriched organoids [1]; Dose 10.00 uM, ENR+CD, 6 days) was −0.225 log 2 fold change, the Z.LYZ.NS (ISC-enriched organoids [1]; Dose 10.00 uM) was −1.961 and the Dose.FC.LYZ.S (ISC-enriched organoids [2]; Dose 0.08 uM, ENR+CD, 6 days) was −0.046 log 2 fold change. The Dose.FC.LYZ.S (ISC-enriched organoids [2]; Dose 0.40 uM, ENR+CD, 6 days) was 0.077 log 2 fold change, the Dose.FC.LYZ.S (ISC-enriched organoids [2]; Dose 2.00 uM, ENR+CD, 6 days) was −0.060 log 2 fold change and the Dose.FC.LYZ.S (ISC-enriched organoids [2]; Dose 10.00 uM, ENR+CD, 6 days) was −0.362 log 2 fold change. It also gave a Dose.FC.CTG (ISC-enriched organoids [3]; Dose 0.08 uM, ENR+CD, 6 days) of −0.080 log 2 fold change, a Z.CTG (ISC-enriched organoids [3]; Dose 0.08 uM) of −0.191 and a Dose.FC.CTG (ISC-enriched organoids [3]; Dose 0.40 uM, ENR+CD, 6 days) of 0.103 log 2 fold change. It also gave a Z.CTG (ISC-enriched organoids [3]; Dose 0.40 uM) of 0.245, a Dose.FC.CTG (ISC-enriched organoids [3]; Dose 2.00 uM, ENR+CD, 6 days) of −0.468 log 2 fold change and a Z.CTG (ISC-enriched organoids [3]; Dose 2.00 uM) of −1.119. For the same compound, the Dose.FC.CTG (ISC-enriched organoids [3]; Dose 10.00 uM, ENR+CD, 6 days) was −1.304 log 2 fold change and the Z.CTG (ISC-enriched organoids [3]; Dose 10.00 uM) was −3.116.

In the case of `O=C1NC(=O)C(c2ccccc2[N+](=O)[O-])=C1Nc1ccc(O)c(Cl)c1` [SB415286], the “Z.LYZ.NS (standard z score)” value (ISC-enriched organoids [1]; Dose 0.08 uM, primary screen) is reported as 1.262, the “Dose.FC.LYZ.NS (log 2 fold change)” value (ISC-enriched organoids [1]; Dose 0.08 uM, primary screen) is reported as 0.145 and the “Z.LYZ.NS (standard z score)” value (ISC-enriched organoids [1]; Dose 0.40 uM, primary screen) is reported as 0.101. The “Dose.FC.LYZ.NS (log 2 fold change)” value (ISC-enriched organoids [1]; Dose 0.40 uM, primary screen) was 0.012, the “Z.LYZ.NS (standard z score)” value (ISC-enriched organoids [1]; Dose 2.00 uM, primary screen) was 1.024 and the “Dose.FC.LYZ.NS (log 2 fold change)” value (ISC-enriched organoids [1]; Dose 2.00 uM, primary screen) was 0.118. For the same compound, the “Z.LYZ.NS (standard z score)” value (ISC-enriched organoids [1]; Dose 10.00 uM, primary screen) was −0.136, the “Dose.FC.LYZ.NS (log 2 fold change)” value (ISC-enriched organoids [1]; Dose 10.00 uM, primary screen) was −0.016 and the “Dose.FC.LYZ.S (log 2 fold change)” value (ISC-enriched organoids [2]; Dose 0.08 uM, primary screen) was 0.159. For the same compound, the “Dose.FC.LYZ.S (log 2 fold change)” value (ISC-enriched organoids [2]; Dose 0.40 uM, primary screen) was −0.008, the “Dose.FC.LYZ.S (log 2 fold change)” value (ISC-enriched organoids [2]; Dose 2.00 uM, primary screen) was −0.053 and the “Dose.FC.LYZ.S (log 2 fold change)” value (ISC-enriched organoids [2]; Dose 10.00 uM, primary screen) was −0.042. For the same compound, the “Z.CTG (standard z score)” value (ISC-enriched organoids [3]; Dose 0.08 uM, primary screen) was 0.527, the “Dose.FC.CTG (log 2 fold change)” value (ISC-enriched organoids [3]; Dose 0.08 uM, primary screen) was 0.221 and the “Z.CTG (standard z score)” value (ISC-enriched organoids [3]; Dose 0.40 uM, primary screen) was −0.011. For the same compound, the “Dose.FC.CTG (log 2 fold change)” value (ISC-enriched organoids [3]; Dose 0.40 uM, primary screen) was −0.004, the “Z.CTG (standard z score)” value (ISC-enriched organoids [3]; Dose 2.00 uM, primary screen) was −0.231 and the “Dose.FC.CTG (log 2 fold change)” value (ISC-enriched organoids [3]; Dose 2.00 uM, primary screen) was −0.097. The “Z.CTG (standard z score)” value (ISC-enriched organoids [3]; Dose 10.00 uM, primary screen) was 0.293 and the “Dose.FC.CTG (log 2 fold change)” value (ISC-enriched organoids [3]; Dose 10.00 uM, primary screen) was 0.123.

`COc1cc(N2CCC(N)CC2)ccc1Nc1ncc(Cl)c(-c2c[nH]c3ccccc23)n1` [AZD3463] was tested, and the Dose.FC.LYZ.NS (ISC-enriched organoids [1]; [4]) was −0.147 log 2 fold change, the Z.LYZ.NS (ISC-enriched organoids [1]; primary screen, dose 0.08 uM) was −1.279 and the Dose.FC.LYZ.NS (ISC-enriched organoids [1]; [5]) was −0.190 log 2 fold change. The Z.LYZ.NS (ISC-enriched organoids [1]; primary screen, dose 0.40 uM) was −1.652, the Dose.FC.LYZ.NS (ISC-enriched organoids [1]; [6]) was −0.232 log 2 fold change and the Z.LYZ.NS (ISC-enriched organoids [1]; primary screen, dose 2.00 uM) was −2.021. The Dose.FC.LYZ.NS (ISC-enriched organoids [1]; [7]) was −0.209 log 2 fold change, the Z.LYZ.NS (ISC-enriched organoids [1]; primary screen, dose 10.00 uM) was −1.820 and the Dose.FC.LYZ.S (ISC-enriched organoids [2]; [4]) was −0.199 log 2 fold change. For the same compound, the Dose.FC.LYZ.S (ISC-enriched organoids [2]; [5]) was −0.293 log 2 fold change, the Dose.FC.LYZ.S (ISC-enriched organoids [2]; [6]) was −0.315 log 2 fold change and the Dose.FC.LYZ.S (ISC-enriched organoids [2]; [7]) was −0.328 log 2 fold change. The Dose.FC.CTG (ISC-enriched organoids [3]; [4]) was −0.275 log 2 fold change, the Z.CTG (ISC-enriched organoids [3]; primary screen, dose 0.08 uM) was −0.657 and the Dose.FC.CTG (ISC-enriched organoids [3]; [5]) was −0.341 log 2 fold change. The Z.CTG (ISC-enriched organoids [3]; primary screen, dose 0.40 uM) was −0.814, the Dose.FC.CTG (ISC-enriched organoids [3]; [6]) was −0.772 log 2 fold change and the Z.CTG (ISC-enriched organoids [3]; primary screen, dose 2.00 uM) was −1.843. For the same compound, the Dose.FC.CTG (ISC-enriched organoids [3]; [7]) was −0.960 log 2 fold change and the Z.CTG (ISC-enriched organoids [3]; primary screen, dose 10.00 uM) was −2.293.
